Tests used:
[1] = test system: 2P782 (Roundup Ready Control) corn; test: Herbicide tolerance of 2P782 Roundup Ready control corn in the F1 stack test; type: in vivo, Zea mays; details: 1120 g ae/ha 2,4-D DMA
Source text: (§1) AAD-12 (v1) (pDAB4101) and elite Roundup Ready inbred (BE1146RR) were reciprocally crossed and F1 seed was collected. The seed from two F1 lines were planted and treated with 70 g ae/ha imazethapyr at the V2 stage to eliminate nulls. To the surviving plants, reps were separated and either treated with 1120 g ae/ha 2,4-D DMA+70 g ae/ha imazethapyr (to confirm presence of AHAS gene) or 1120 g ae/ha 2,4-D DMA+1680 g ae/ha glyphosate (to confirm the presence of the Round Up Ready gene) in a track sprayer calibrated to 187 L/ha. Plants were graded 3 and 16 DAT.

[2] = test system: Untransformed Control corn; test: Herbicide tolerance of untransformed control corn in the F1 stack test; type: in vivo, Zea mays; details: 1120 g ae/ha 2,4-D DMA
Source text: as §1

[3] = test system: AAD-12 (v1) transformed T1 corn plants; test: Brace root injury of T1 corn after 2,4-D DMA; type: in vivo, Zea mays; details: 2240 g ae/ha 2,4-D DMA, V3-V4 stage, 14DAT
Source text: (§2) T1 AAD-12 (v1) seed were planted into 3-inch pots containing Metro Mix media and at 2 leaf stage were sprayed with 70 g ae/ha imazethapyr to eliminate nulls. Surviving plants were transplanted to 1-gallon pots containing Metro Mix media and placed in the same growth conditions as before. At V3-V4 stage the plants were sprayed in the track sprayer set to 187 L/ha at either 560 or 2240 g ac/ha 2,4-D DMA. Plants were graded at 3 and 14 DAT and compared to 5XH751×Hi II control plants. A grading scale of 0-10 (no injury to extreme auxin injury) was developed to distinguish brace root injury. Brace Root grades were taken on 14DAT to show 2,4-D tolerance. 2,4-D causes brace root malformation, and is a consistent indicator of auxinic herbicide injury in corn. […] Event “pDAB4101(0)001.001” was apparently unstable; however, the other two events were robustly tolerant to 2,4-D and 2,4-D+imazethapyr or 2,-4D+glyphosate (see Table 16).

[4] = test system: untransformed control canola plants; test: 2,4-D DMA tolerance, untransformed canola control; type: in vivo, Brassica napus
Source text: Surviving plants were transplanted into 3-inch pots containing Metro Mix media. Surviving plants from T1 progenies, that were selected with 560 g ae/ha 2,4-D, were also transplanted into 3-inch pots filled with Metro Mix soil. At 2-4 leaf stage plants were sprayed with either 280, 560, 1120, or 2240 g ae/ha 2,4-D DMA. Plants were graded at 3 and 14 DAT and compared to untransformed control plants. A sampling of T1 event injury data 14DAT may be seen in Table 30.

[5] = test system: T1 AAD-12 (v1) rice lines pDAB4101(20)003 and pDAB4101(27)002; test: 2,4-D DMA tolerance in T1 rice; type: in vivo, Oryza sativa
Source text: The following T1 AAD-12 (v1) single segregating locus lines were planted into 3-inch pots containing Metro Mix media: pDAB4101(20)003 and pDAB4101(27)002. At 2-3 leaf stage were sprayed with 140 g ae/ha imazethapyr. Nulls were eliminated and individuals were sprayed at V3-V4 stage in the track sprayer set to 187 L/ha at 1120, 2240 or 4480 g ac/ha 2,4-D DMA (2×, 4×, and 8× typical commercial use rates, respectively). Plants were graded at 7 and 14 DAT and compared to untransformed commercial rice cultivar. ‘Lamont,’ as negative control plants.

[6] = test system: Untransformed control corn (5XH751×Hi II); test: Brace root injury of untransformed control corn after 2,4-D DMA; type: in vivo, Zea mays; details: 2240 g ae/ha 2,4-D DMA, V3-V4 stage, 14DAT
Source text: as §2

[7] = test system: AAD-12 transformed T0 corn events; test: Postemergence herbicide tolerance in T0 corn; type: in vivo, Zea mays; details: 2240 g ae/ha 2,4-D
Procedure: Four T0 events were allowed to acclimate in the greenhouse and were grown until 2-4 new, normal looking leaves had emerged from the whorl (i.e., plants had transitioned from tissue culture to greenhouse growing conditions). Plants were grown at 27° C. under 16 hour light:8 hour dark conditions in the greenhouse. Plants were then treated with commercial formulations of either Pursuit® (imazethapyr) or 2,4-D Amine 4. […] Herbicide applications were made with a track sprayer at a spray volume of 187 L/ha, 50-cm spray height. Plants were sprayed with either a lethal dose of imazethapyr (70 g ae/ha) or a rate of 2,4-D DMA salt capable of significant injury to untransformed corn lines (2240 g ac/ha). A lethal dose is defined as the rate that causes >95% injury to the Hi-II inbred. Hi-II is the genetic background of the transformants of the present invention.

T1 AAD-1 (v3) tobacco = test: Elevated 2,4-D DMA rates in greenhouse tobacco, AAD-1; type: in vivo, Nicotiana tabacum
Source text: T1 AAD-12 (v1) plants from an event segregating 3R:1S when selected with 560 g ai/ha Liberty using the same protocol as previously described. T1 AAD-1 (v3) seed was also planted for transformed tobacco controls (see PCT/US2005/014737). Untransformed KY160 was served as the sensitive control. Plants were sprayed using a track sprayer set to 187 L/ha at 140, 560, 2240, 8960, and 35840 g ae/ha 2,4-D DMA and rated 3 and 14 DAT.

## CNC.O=C(O)COc1ccc(Cl)cc1Cl [2,4-D DMA]
[1]
  Average % Injury 16DAT: 19%
[2]
  Average % Injury 16DAT: 21%
[3]; event AAD-12 (v1) pDAB4101(0)005.001
  Average Brace Root Injury (0-10 Scale): 0
[3]; event AAD-12 (v1) pDAB41011(0)003.003
  Average Brace Root Injury (0-10 Scale): 1
[3]; event AAD-12 (v1)pDAB4101(0)001.001
  Average Brace Root Injury (0-10 Scale): 8
[4]; 280 g ae/ha
  Average % injury 14 DAT: 85%
[4]; 560 g ae/ha
  Average % injury 14 DAT: 85%
[4]; 1120 g ae/ha
  Average % injury 14 DAT: 90%
[4]; 2240 g ae/ha
  Average % injury 14 DAT: 95%
[5]; T1 pDAB4101(20)003, 1120 g ae/ha
  Average % injury 14 DAT: 10%
[5]; T1 pDAB4101(20)003, 2240 g ae/ha
  Average % injury 14 DAT: 15%
[5]; T1 pDAB4101(20)003, 4480 g ae/ha
  Average % injury 14 DAT: 23%
[5]; T1 pDAB4101(27)002, 1120 g ae/ha
  Average % injury 14 DAT: 10%
[5]; T1 pDAB4101(27)002, 2240 g ae/ha
  Average % injury 14 DAT: 30%
[5]; T1 pDAB4101(27)002, 4480 g ae/ha
  Average % injury 14 DAT: 40%
[6]
  Average Brace Root Injury (0-10 Scale): 9

## O=C(O)COc1ccc(Cl)cc1Cl [2,4-D, 2,4-dichlorophenoxyacetic acid]
[7]; T0 corn event 4101(0)003.001
  % injury 14 DAT: 0%
[7]; T0 corn event 4101(0)003.003
  % injury 14 DAT: 0%
[7]; T0 corn event 4101(0)005.001
  % injury 14 DAT: 0%
T1 AAD-1 (v3) tobacco; 2240 g ae/ha 2,4-D
  Average % injury 14 DAT: 4%
T1 AAD-1 (v3) tobacco; 8960 g ae/ha 2,4-D
  Average % injury 14 DAT: 9%
T1 AAD-1 (v3) tobacco; 35840 g ae/ha 2,4-D
  Average % injury 14 DAT: 32%
